In patent US20240400555A1 (Initial Therapeutics, Inc., priority 2023, published 2024):

System: MV-4-11 cells
Assay: Cell Viability Assay in MV-4-11 Cells
Format: cell-based
Details: Homo sapiens, MV4-11, 72 h, MV-4-11 cells, 72 h, Cell-Titer Glo; read-out: IC50
Method in brief: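 Luminescent ATP read-out (CellTiter-Glo) after 72 h compound treatment of MV-4-11 leukaemia cells (7,000 per well, IMDM plus 10% FBS). Values expressed relative to DMSO control and derived by four-parameter non-linear regression.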

Structure (SMILES) | IC50
Cc1cccc2ccnc(N(C(=O)c3ccc(Nc4ncnc(N5CCCC5)n4)cc3F)[C@@H]3CCCNC3)c12 [Example 968, 2-fluoro-N-(8-methylisoquinolin-1-yl)-N-[(3R)-piperidin-3-yl]-4-{[4-(pyrrolidin-1-yl)-1,3,5-triazin-2-yl]amino}benzamide] | 40 nM
CCc1nnc(-c2ccc(C(=O)N(c3nccc4cc(Cl)cc(C)c34)[C@@H]3CCCNC3)c(F)c2)s1 [Example 700, (R)—N-(6-chloro-8-methylisoquinolin-1-yl)-4-(5-ethyl-1,3,4-thiadiazol-2-yl)-2-fluoro-N-(piperidin-3-yl)benzamide] | 210 nM
CC(=O)N1CCN(c2ccnc(Nc3ccc(C(=O)N(c4nccc5cccc(C)c45)[C@@H]4CCCNC4)c(F)c3)n2)CC1 [Example 933, (R)-4-((4-(4-acetylpiperazin-1-yl)pyrimidin-2-yl)amino)-2-fluoro-N-(8-methylisoquinolin-1-yl)-N-(piperidin-3-yl)benzamide] | 180 nM
Cn1cc(-c2ccc(C(=O)N(c3nccc4sc(-c5cccc(N)c5)cc34)[C@@H]3CCCNC3)c(F)c2)nn1 [Example 509, N-[2-(3-aminophenyl)thieno[3,2-c]pyridin-4-yl]-2-fluoro-4-(1-methyltriazol-4-yl)-N-[(3R)-3-piperidyl]benzamidezamide] | 520 nM
COc1cc(C)c2c(N(C(=O)c3ccc(-c4nnc(C)s4)cn3)[C@@H]3CCCNC3)nccc2c1 [Example 864, N-(6-methoxy-8-methyl-1-isoquinolyl)-5-(5-methyl-1,3,4-thiadiazol-2-yl)-N-[(3R)-3-piperidyl]pyridine-2-carboxamide] | 130 nM
Cc1cc(C)c2c(N(C(=O)c3ccc(-c4nnc(C)o4)nc3)[C@@H]3CCCNC3)nccc2c1 [Example 642, (R)—N-(6,8-dimethylisoquinolin-1-yl)-6-(5-methyl-1,3,4-oxadiazol-2-yl)-N-(piperidin-3-yl)nicotinamide] | 160 nM
Cc1cc(-c2cc3c(N(C(=O)c4ccc(-c5cn(C)nn5)cc4F)[C@@H]4CCCNC4)nccc3s2)ccc1C(N)=O [Example 607, (R)—N-(2-(4-carbamoyl-3-methylphenyl)thieno[3,2-c]pyridin-4-yl)-2-fluoro-4-(1-methyl-1H-1,2,3-triazol-4-yl)-N-(piperidin-3-yl)benzamide] | 800 nM
COc1nnc(-c2ccc(C(=O)N(c3nccc4cc(F)cc(C)c34)[C@@H]3CCCNC3)c(F)c2)s1 [Example 710, 2-fluoro-N-(6-fluoro-8-methyl-1-isoquinolyl)-4-(5-methoxy-1,3,4-thiadiazol-2-yl)-N-[(3R)-3-piperidyl]benzamide] | 2300 nM
Cc1cc(F)cc2ccnc(N(C(=O)c3ccc(Nc4ncccn4)cc3F)[C@@H]3CCCNC3)c12 [Example 564, (R)-2-fluoro-N-(6-fluoro-8-methylisoquinolin-1-yl)-N-(piperidin-3-yl)-4-(pyrimidin-2-ylamino)benzamide] | 14 nM
Cc1cccc2ccnc(N(C(=O)c3ccc(Nc4nccc(N5CCCC[C@H]5C)n4)cc3F)[C@@H]3CCCNC3)c12 [Example 959, 2-fluoro-N-(8-methylisoquinolin-1-yl)-4-({4-[(2R)-2-methylpiperidin-1-yl]pyrimidin-2-yl}amino)-N-[(3R)-piperidin-3-yl]benzamide] | 190 nM
CC(C)(O)C#Cc1ccc2c(N(C(=O)c3ccc(-n4nnc5cccnc54)cc3F)[C@@H]3CCCNC3)nccc2c1 [Example 586, (R)-4-(3H-[1,2,3]triazolo[4,5-b]pyridin-3-yl)-2-fluoro-N-(6-(3-hydroxy-3-methylbut-1-yn-1-yl)isoquinolin-1-yl)-N-(piperidin-3-yl)benzamide] | 310 nM
Cn1cc(-c2ccc(C(=O)N(c3nccc4sc(-c5ccc(C(=O)Nc6ccccc6)cc5)cc34)[C@@H]3CCCNC3)c(F)c2)nn1 [Example 523, 2-fluoro-4-(1-methyltriazol-4-yl)-N-[2-[4-(phenylcarbamoyl)phenyl]thieno[3,2-c]pyridin-4-yl]-N-[(3R)-3-piperidyl]benzamide] | 920 nM
Cc1cnc(-c2ccc3c(N(C(=O)c4ccc(-n5nnc6cccnc65)cc4F)[C@@H]4CCCNC4)nccc3c2)s1 [Example 574, (R)-4-(3H-[1,2,3]triazolo[4,5-b]pyridin-3-yl)-2-fluoro-N-(6-(5-methylthiazol-2-yl)isoquinolin-1-yl)-N-(piperidin-3-yl)benzamide] | 390 nM
Cc1cccc2ccnc(N(C(=O)c3ccc(-c4cncs4)cc3F)[C@@H]3CCCNC3)c12 [Example 314, (R)-2-fluoro-N-(8-methylisoquinolin-1-yl)-N-(piperidin-3-yl)-4-(thiazol-5-yl) benzamide] | 50 nM

The remaining lines, values ahead:

IC50 | Structure (SMILES)
200 nM | CS(=O)(=O)c1cccc(-c2cc3c(N(C(=O)c4ccc(-n5nnc6cccnc65)cc4F)[C@@H]4CCCNC4)nccc3s2)c1 [Example 419, 2-fluoro-N-[2-(3-methylsulfonylphenyl)thieno[3,2-c]pyridin-4-yl]-N-[(3R)-3-piperidyl]-4-(triazolo[4,5-b]pyridin-3-yl)benzamide]
3700 nM | O=C(c1ccc(Nc2ncccn2)cc1F)N(c1nccc2cc(Nc3ncccn3)ccc12)[C@@H]1CCCNC1 [Example 738, (R)-2-fluoro-N-(piperidin-3-yl)-4-(pyrimidin-2-ylamino)-N-(6-(pyrimidin-2-ylamino)isoquinolin-1-yl)benzamide]
440 nM | CC(C)(O)c1ccc(-c2cc3c(N(C(=O)c4ccc(-n5nnc6cccnc65)cc4F)[C@@H]4CCCNC4)nccc3s2)cc1 [Example 585, (R)-4-(3H-[1,2,3]triazolo[4,5-b]pyridin-3-yl)-2-fluoro-N-(2-(4-(2-hydroxypropan-2-yl)phenyl)thieno[3,2-c]pyridin-4-yl)-N-(piperidin-3-yl)benzamide]
200 nM | Cc1cccc2ccnc(N(C(=O)c3ccc(Nc4nccc(NCc5ccncc5)n4)cc3F)[C@@H]3CCCNC3)c12 [Example 697, (R)-2-fluoro-N-(8-methylisoquinolin-1-yl)-N-(piperidin-3-yl)-4-((4-((pyridin-4-ylmethyl)amino)pyrimidin-2-yl)amino)benzamide]
> 5200 nM | COc1ccc(F)c2c(N(C(=O)c3ccc(-c4cn(C)nn4)cc3)[C@@H]3CCCNC3)nccc12 [Example 873, N-(8-fluoro-5-methoxy-1-isoquinolyl)-4-(1-methyltriazol-4-yl)-N-[(3R)-3-piperidyl] benzamide]
140 nM | Cc1nnc(-c2ccc(C(=O)N(c3nccc4cc(Cl)cc(C)c34)[C@@H]3CCCNC3)nc2)s1 [Example 801, (R)—N-(6-chloro-8-methylisoquinolin-1-yl)-5-(5-methyl-1,3,4-thiadiazol-2-yl)-N-(piperidin-3-yl)picolinamide]
430 nM | Cn1cc(-c2ccc(C(=O)N(c3nccc4cc(-c5ccc(F)cc5)ccc34)[C@@H]3CCCNC3)c(F)c2)nn1 [Example 580, (R)-2-fluoro-N-(6-(4-fluorophenyl)isoquinolin-1-yl)-4-(1-methyl-1H-1,2,3-triazol-4-yl)-N-(piperidin-3-yl)benzamide]
120 nM | Cc1cc(Cl)cc2ccnc(N(C(=O)c3ccc(-c4cc(Cl)cnn4)cn3)[C@@H]3CCCNC3)c12 [Example 769, (R)—N-(6-chloro-8-methylisoquinolin-1-yl)-5-(5-chloropyridazin-3-yl)-N-(piperidin-3-yl)picolinamide]
160 nM | O=C(c1ccc(-n2nnc3cccnc32)cc1F)N(c1nccc2sc(-c3ccc(CO)s3)cc12)[C@@H]1CCCNC1 [Example 426, 2-fluoro-N-[2-[5-(hydroxymethyl)-2-thienyl]thieno [3,2-c]pyridin-4-yl]-N-[(3R)-3-piperidyl]-4-(triazolo [4,5-b]pyridin-3-yl) benzamide]
240 nM | O=C(c1ccc(-n2nnc3cccnc32)cc1F)N(c1nccc2sc(-c3ccnc(F)c3)cc12)[C@@H]1CCCNC1 [Example 566, 2-fluoro-N-[2-(2-fluoro-4-pyridyl)thieno [3,2-c]pyridin-4-yl]-N-[(3R)-3-piperidyl]-4-(triazolo [4,5-b]pyridin-3-yl) benzamide]
440 nM | Cc1sc2ccnc(N(C(=O)c3ccc(-c4cn(C)nn4)cc3F)[C@@H]3CCCNC3)c2c1C [Example 831, (R)—N-(2,3-dimethylthieno[3,2-c]pyridin-4-yl)-2-fluoro-4-(1-methyl-1H-1,2,3-triazol-4-yl)-N-(piperidin-3-yl)benzamide]
180 nM | Cc1cccc2ccnc(N(C(=O)c3ccc(-c4nnc(CCC#N)s4)cc3)[C@@H]3CCCNC3)c12 [Example 880, 4-[5-(2-cyanoethyl)-1,3,4-thiadiazol-2-yl]-N-(8-methyl-1-isoquinolyl)-N-[(3R)-3-piperidyl]benzamide]
> 7500 nM | Cc1nnc(-c2ccc(C(=O)N(c3nccc4cc(Cl)cc(C)c34)[C@@H]3CCCNC3)c(Cl)c2)o1 [Example 764, (R)-2-chloro-N-(6-chloro-8-methylisoquinolin-1-yl)-4-(5-methyl-1,3,4-oxadiazol-2-yl)-N-(piperidin-3-yl)benzamide]
60 nM | Cc1cc(C)c2c(N(C(=O)c3ccc(-c4cn(C)nn4)cn3)[C@@H]3CCCNC3)nccc2c1 [Example 703, (R)—N-(6,8-dimethylisoquinolin-1-yl)-5-(1-methyl-1H-1,2,3-triazol-4-yl)-N-(piperidin-3-yl)picolinamide]
290 nM | O=C(c1ccc(-n2nnc3cccnc32)cc1F)N(c1nccc2cc(-c3cc[nH]c(=O)c3)ccc12)[C@@H]1CCCNC1 [Example 440, (R)-4-(3H-[1,2,3]triazolo[4,5-b]pyridin-3-yl)-2-fluoro-N-(6-(2-oxo-1,2-dihydropyridin-4-yl)isoquinolin-1-yl)-N-(piperidin-3-yl)benzamide]
650 nM | O=C(c1ccc(-n2nnc3cccnc32)cc1F)N(c1nccc2sc(-c3ccnnc3)cc12)[C@@H]1CCCNC1 [Example 455, 2-fluoro-N-[(3R)-3-piperidyl]-N-(2-pyridazin-4-ylthieno[3,2-c]pyridin-4-yl)-4-(triazolo[4,5-b]pyridin-3-yl)benzamide]
